# Source: US10278971B2, “Fluorocyclopentenylcytosine methods of use” (Rexahn Pharmaceuticals, Inc., priority 2015, dated 2019)
# Legend:
# MC38 murine colon cancer = experiment: Syngeneic MC38 murine colon cancer model, tumor growth; assay type: in vivo
# Description: Following the protocol described below, the effect of RX-3117 on tumor growth in a syngeneic model using female C57BL/6 mice with MC38 murine colon cancer was examined. Tumor growth was measured in a treatment group compared to a control (vehicle treated) group (see Table 1 below for dosing scheme and treatment regimen).
# Briefly, the method is described as follows. The cells were harvested during exponential growth and re-suspended with phosphate buffered saline. Each test animal received a subcutaneous (s.c.) injection of 1×10^6 tumor cells into the right flank and tumor growth was monitored as the average tumor size approaches the target range of 60-100 mm^3. Dosing, based on Table 1 started as each animal reached this target range.
# Tumors were measured in two dimensions using calipers, and volume calculated using the formula:
# […] The MTV (n), the median tumor volume for the number of animals, n, on Day 45, was determined for each group. Percent tumor growth inhibition (% TGI) is defined as the difference between the MTV of the designated control group (vehicle administration) and the MTV of the drug-treated group, expressed as a percentage of the MTV of the control group:
# The data set for TGI analysis includes all animals in a group, except those that died due to treatment-related (TR) or non-treatment-related (NTR) causes. An agent that produces at least 60% TGI in this assay is considered to be potentially therapeutically active.
# Treatment efficacy was determined from the number of regression responses. Treatment may cause partial regression (PR) or complete regression (CR) of the tumor in an animal. In a PR response, the tumor volume is 50% or less of its D1 volume for three consecutive measurements during the course of the study, and equal to or greater than 13.5 mm^3 for one or more of these three measurements. In a CR response, the tumor volume is less than 13.5 mm^3 for three consecutive measurements during the course of the study. Any animal with a CR response on the last day of the study was additionally classified as a tumor-free-survivor.
# For toxicity assessments, animals were weighed daily for the first five days of the study and twice weekly thereafter. The mice were observed frequently for overt signs of any adverse, treatment-related side effects, and clinical signs of toxicity are recorded when observed.
# Acceptable toxicity is defined as a group mean body-weight loss of less than 20% during the study and not more than one treatment-related (TR) death among ten treated animals. Any dosing regimen resulting in greater toxicity is considered above the maximum tolerated dose (MTD). […]
# A2780 cells = experiment: Protein expression by western blot; assay type: cell-based, human; conditions: A2780, 0.1 μM to 10 μM, 48 h
# Description: The influence of RX-3117 on protein expression during different treatment conditions was analyzed by western blot. Cells were lysed using 1× cell lysis buffer (Cell Signaling, Danvers, Mass., USA) containing 4% protease inhibitor cocktail (Roche Diagnostics, Mannheim, Germany) on ice for 30 minutes and centrifuged for 10 minutes at 4° C. at 14,000 rpm. Bio-Rad assay was performed to determine protein amount in the collected supernatant as described earlier (Lemos C, Kathmann I, Giovannetti E, Calhau C, Jansen G and Peters G J: Impact of cellular folate status and epidermal growth factor receptor expression on BCRP/ABCG2-mediated resistance to gefitinib and erlotinib. Br J Cancer 100: 1120-7, 2009). The following antibodies were used for protein expression: γH2A.X (cat#9718, Cell Signaling, 1:1000), β-actin (Sigma, 1:10,000), Cdc25C Ser216 (cat#4901, Cell Signaling, 1:1000), Cdk1 Tyr15 (cat#9111, Cell Signaling, 1:1000), […] (cat#2197S, Cell Signaling, 1:1000), Histone 3 (cat#4499, Cell Signaling). Antibodies were diluted in 1:1 solution with Rockland buffer (Rockland Inc, Philadelphia, Pa.) and phosphate buffered saline (PBS) supplemented with 0.05 Tween 20. Proteins were separated in 20% SDS-PAGE gel and transferred to polyvinylidene difluoride (PVDF) membrane. […] Proteins were detected by an Odyssey InfraRed Imager (Li-COR Bioscience, Lincoln, Nebr.).
# [1] = Day 45, N=10 per group, same regimens
smiles,measurement,setting,value
"Nc1ccn([C@@H]2C(F)=C(CO)[C@@H](O)[C@H]2O)c(=O)n1 [RX-3117, 4-amino-1-((1S,4R,5S)-2-fluoro-4,5-dihydroxy-3-hydroxymethyl-cyclopent-2-enyl)-1H-pyrimidin-2-one]",CR: No. of Complete Regressions,MC38 murine colon cancer; [1],0
same,PR: No. of Partial Regressions,MC38 murine colon cancer; [1],0
same,TFS: No. of Tumor Free Survivors,MC38 murine colon cancer; [1],0
same,TGI Day 28 (tumor growth inhibition),"MC38 murine colon cancer; female C57BL/6 mice, MC38 s.c., RX-3117 60 mg/kg po (5/2) x 3, anti-PD-1 RMP1-14 100 μg/animal ip biwk x 2, 60 mg/kg",80%
same,γH2A.X S139 induction,A2780 cells,induction of γH2A.X S139 in a dose dependent manner
